In US9133158B2, “Bicyclic dihydroisoquinoline-1-one derivatives” (Hoffmann-La Roche Inc., priority 2011, dated 2015):

Assays:
human CYP11B2 = target: T1, human CYP11B2 (Homo sapiens, UniProt P19099); experiment: G-402 cellular enzyme assay, human CYP11B2 (aldosterone release, HTRF); type: cell-based; settings: G-402 cells, 1 μM Deoxycorticosterone
T1 construct: expressed in transfected cells
T1 sequence (P19099 25-503): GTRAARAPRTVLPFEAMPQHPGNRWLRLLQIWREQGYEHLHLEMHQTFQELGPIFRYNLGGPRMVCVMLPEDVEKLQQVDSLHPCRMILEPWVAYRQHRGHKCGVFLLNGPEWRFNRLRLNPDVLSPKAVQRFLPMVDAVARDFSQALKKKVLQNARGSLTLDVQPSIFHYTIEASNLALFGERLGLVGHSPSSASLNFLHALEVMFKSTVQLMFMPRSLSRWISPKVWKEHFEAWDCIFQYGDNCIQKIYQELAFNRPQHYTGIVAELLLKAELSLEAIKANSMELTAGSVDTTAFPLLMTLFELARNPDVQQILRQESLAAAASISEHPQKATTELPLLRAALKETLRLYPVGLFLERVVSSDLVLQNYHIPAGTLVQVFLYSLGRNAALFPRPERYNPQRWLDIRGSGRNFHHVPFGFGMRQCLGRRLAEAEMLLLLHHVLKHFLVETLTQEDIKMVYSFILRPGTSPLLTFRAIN
Summary of the method: (§1)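 Supernatant steroid product measured by HTRF (aldosterone for CYP11B2, cortisol for CYP11B1) after 16 h exposure of stably transfected G-402 cells to compound. Substrates were 1 μM deoxycorticosterone and 1 μM deoxycortisol, respectively; EC50 derived from a four-parameter MMF curve fit.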

human CYP11B1 = target: T2, human CYP11B1 (Homo sapiens, UniProt P15538); experiment: G-402 cellular enzyme assay, human CYP11B1 (cortisol release, HTRF); type: cell-based; settings: G-402 cells, 1 μM Deoxycortisol
T2 construct: expressed in transfected cells
T2 sequence (P15538 25-503): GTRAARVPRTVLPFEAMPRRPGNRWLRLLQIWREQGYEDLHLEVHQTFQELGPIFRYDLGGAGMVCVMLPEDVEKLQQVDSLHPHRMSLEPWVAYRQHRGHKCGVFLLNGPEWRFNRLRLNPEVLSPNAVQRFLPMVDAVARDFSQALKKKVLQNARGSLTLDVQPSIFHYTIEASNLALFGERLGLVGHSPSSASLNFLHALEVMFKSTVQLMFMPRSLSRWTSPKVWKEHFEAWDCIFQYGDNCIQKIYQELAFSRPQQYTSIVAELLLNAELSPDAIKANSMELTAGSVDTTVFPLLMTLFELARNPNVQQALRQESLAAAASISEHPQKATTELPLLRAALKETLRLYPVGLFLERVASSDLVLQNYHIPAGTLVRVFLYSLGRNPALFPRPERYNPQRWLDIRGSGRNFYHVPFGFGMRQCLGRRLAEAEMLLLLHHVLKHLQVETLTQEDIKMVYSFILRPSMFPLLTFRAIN
Summary of the method: as §1

Row | SMILES | EC50 (human CYP11B2) [nM] | EC50 (human CYP11B1) [nM]
1 | CC[C@@H]1c2cc(Cl)ccc2C(=O)N1c1cncc2c1CC[C@H]2NS(C)(=O)=O (single isomer, unassigned) [Example 369, N-[(R or S)-4-((R or S)-5-Chloro-3-ethyl-1-oxo-1,3-dihydro-isoindol-2-yl)-6,7-dihydro-5H-[2]pyrindin-7-yl]-methanesulfonamide] | 40.3 | 12400
2 | CC(=O)N[C@@H]1CCCc2c1cncc2N1C(=O)c2ccc(Cl)cc2[C@H]1C1CC1 (single isomer, unassigned) [Example 372, N-[(R or S)-4-((R or S)-5-Chloro-3-cyclopropyl-1-oxo-1,3-dihydro-isoindol-2-yl)-5,6,7,8-tetrahydro-isoquinolin-8-yl]-acetamide] | 100 | 22800
3 | CCC(=O)N[C@@H]1CCc2c1cncc2N1C(=O)c2ccc(Cl)cc2[C@H]1C (single isomer, unassigned) [Example 376, N-[(R or S)-4-((R or S)-5-Chloro-3-methyl-1-oxo-1,3-dihydro-isoindol-2-yl)-6,7-dihydro-5H-[2]pyrindin-7-yl]-propionamide] | 26 | 7960
4 | CCC(=O)N[C@H]1CCc2c1cncc2N1C(=O)c2ccc(Cl)cc2[C@H]1C (single isomer, unassigned) [Example 377, N-[(S or R)-4-((R or S)-5-Chloro-3-methyl-1-oxo-1,3-dihydro-isoindol-2-yl)-6,7-dihydro-5H-[2]pyrindin-7-yl]-propionamide] | 3.4 | 448
5 | CCC(=O)N[C@H]1CCc2c1cncc2N1C(=O)c2ccc(Cl)cc2[C@@H]1C (single isomer, unassigned) [Example 378, N-[(S or R)-4-((S or R)-5-Chloro-3-methyl-1-oxo-1,3-dihydro-isoindol-2-yl)-6,7-dihydro-5H-[2]pyrindin-7-yl]-propionamide] | 212 | 14600
6 | CCC1c2cc(Cl)ccc2C(=O)N1c1cncc(CNS(=O)(=O)CC)c1 (single isomer, unassigned) [Example 390, Ethanesulfonic acid [5-((S or R)-5-chloro-3-ethyl-1-oxo-1,3-dihydro-isoindol-2-yl)-pyridin-3-ylmethyl]-amide] | 316 | 5470
7 | CCC(=O)NCc1cncc(N2C(=O)c3ccc(Cl)cc3C2CC)c1 (single isomer, unassigned) [Example 399, N-[5-((S or R)-5-Chloro-3-ethyl-1-oxo-1,3-dihydro-isoindol-2-yl)-pyridin-3-ylmethyl]-propionamide] | 313 | 11300
8 | CCC1c2ccc(Cl)cc2C(=O)N1c1cncc(CNS(C)(=O)=O)c1 (single isomer, unassigned) [Example 405, N-[5-((S or R)-5-Chloro-1-ethyl-3-oxo-1,3-dihydro-isoindol-2-yl)-pyridin-3-ylmethyl]-methane-sulfonamide] | 546 | 35200
9 | CCC1c2ccc(Cl)cc2C(=O)N1c1cncc(CNS(C)(=O)=O)c1 (single isomer, unassigned) [Example 407, N-[5-((R or S)-5-Chloro-1-ethyl-3-oxo-1,3-dihydro-isoindol-2-yl)-pyridin-3-ylmethyl]-methane-sulfonamide] | 987 | 20700
10 | CCC1c2cc(Cl)ccc2C(=O)N1c1cncc(-c2ccnn2C)c1 (single isomer, unassigned) [Example 428, (R or S)-5-Chloro-3-ethyl-2-[5-(2-methyl-2H-pyrazol-3-yl)-pyridin-3-yl]-2,3-dihydro-isoindol-1-one] | 20 | 105
11 | CCC1c2cc(Cl)ccc2C(=O)N1c1cncc(-c2ccnn2C)c1 (single isomer, unassigned) [Example 429, (S or R)-5-Chloro-3-ethyl-2-[5-(2-methyl-2H-pyrazol-3-yl)-pyridin-3-yl]-2,3-dihydro-isoindol-1-one] | 4.3 | 57.7
12 | CC(=O)NC1CCCc2c1cncc2N1C(=O)c2ccc(Cl)cc2C1(C)C (single isomer, unassigned) [Example 466, N—[(S or R)-4-(6-Chloro-1,1-dimethyl-3-oxo-1,3-dihydro-isoindol-2-yl)-5,6,7,8-tetrahydro-isoquinolin-8-yl]-acetamide] | 467 | 21300
13 | CC(=O)NC1CCCc2c1cncc2N1C(=O)c2ccc(Cl)cc2C1(C)C (single isomer, unassigned) [Example 467, N—[(R or S)-4-(6-Chloro-1,1-dimethyl-3-oxo-1,3-dihydro-isoindol-2-yl)-5,6,7,8-tetrahydro-isoquinolin-8-yl]-acetamide] | 28.8 | 2180
14 | CCS(=O)(=O)NC1CCCc2c1cncc2N1Cc2cc(Cl)ccc2C1=O (single isomer, unassigned; (+)) [Example 316, (+)-Ethanesulfonic acid [(R or S)-4-(5-chloro-1-oxo-1,3-dihydro-isoindol-2-yl)-5,6,7,8-tetrahydro-isoquinolin-8-yl]-amide] | 40.2 | 1830
15 | CC(=O)NC1CCc2c1cncc2N1Cc2cc(Cl)ccc2C1=O (single isomer, unassigned; (+)) [Example 319, (+)-N—[(R or S)-4-(5-Chloro-1-oxo-1,3-dihydro-isoindol-2-yl)-6,7-dihydro-5H-[2]pyrindin-7-yl]-acetamide] | 109 | 5130
16 | CCS(=O)(=O)NC1CCCc2c1cncc2N1Cc2cc(Cl)ccc2C1=O (single isomer, unassigned; (-)) [Example 317, (−)-Ethanesulfonic acid [(S or R)-4-(5-chloro-1-oxo-1,3-dihydro-isoindol-2-yl)-5,6,7,8-tetrahydro-isoquinolin-8-yl]-amide] | 109 | 2640
17 | O=C1c2ccc(Cl)cc2CCN1c1cccnc1 [Example 1, 6-Chloro-2-pyridin-3-yl-3,4-dihydro-2H-isoquinolin-1-one] | 86 | 4610
18 | N#Cc1cncc(N2CCc3cc(Cl)ccc3C2=O)c1 [Example 2, 5-(6-Chloro-1-oxo-3,4-dihydro-1H-isoquinolin-2-yl)-nicotinonitrile] | 442 | 7390
19 | O=C1c2ccc(Cl)cc2CCN1c1cncc(CO)c1 [Example 3, 6-Chloro-2-(5-hydroxymethyl-pyridin-3-yl)-3,4-dihydro-2H-isoquinolin-1-one] | 96.5 | 3720
20 | O=C1c2ccc(Cl)cc2CCN1c1cncc(Cl)c1 [Example 4, 6-Chloro-2-(5-chloro-pyridin-3-yl)-3,4-dihydro-2H-isoquinolin-1-one] | 67.1 | 1240
21 | O=C1c2ccc(Cl)cc2CCN1c1cncc(F)c1 [Example 5, 6-Chloro-2-(5-fluoro-pyridin-3-yl)-3,4-dihydro-2H-isoquinolin-1-one] | 92.5 | 4270
22 | O=C1c2ccc(Cl)cc2CCN1c1cnccc1Cl [Example 6, 6-Chloro-2-(4-chloro-pyridin-3-yl)-3,4-dihydro-2H-isoquinolin-1-one] | 30 | 1210
23 | O=C1c2ccc(Cl)cc2CCN1c1cncc(Br)c1 [Example 7, 2-(5-Bromo-pyridin-3-yl)-6-chloro-3,4-dihydro-2H-isoquinolin-1-one] | 77.9 | 704
24 | Cc1cncc(N2CCc3cc(Cl)ccc3C2=O)c1 [Example 8, 6-Chloro-2-(5-methyl-pyridin-3-yl)-3,4-dihydro-2H-isoquinolin-1-one] | 44.9 | 807
25 | O=Cc1cncc(N2CCc3cc(Cl)ccc3C2=O)c1 [Example 9, 5-(6-Chloro-1-oxo-3,4-dihydro-1H-isoquinolin-2-yl)-pyridine-3-carbaldehyde] | 117 | 4740
26 | COc1cncc(N2CCc3cc(Cl)ccc3C2=O)c1 [Example 10, 6-Chloro-2-(5-methoxy-pyridin-3-yl)-3,4-dihydro-2H-isoquinolin-1-one] | 26 | 822
27 | CC(C)Oc1cncc(N2CCc3cc(Cl)ccc3C2=O)c1 [Example 11, 6-Chloro-2-(5-isopropoxy-pyridin-3-yl)-3,4-dihydro-2H-isoquinolin-1-one] | 12.7 | 257
28 | CC(C)(O)c1cncc(N2CCc3cc(Cl)ccc3C2=O)c1 [Example 12, 6-Chloro-2-[5-(1-hydroxy-1-methyl-ethyl)-pyridin-3-yl]-3,4-dihydro-2H-isoquinolin-1-one] | 35.7 | 118
